Assay results as given in ChEMBL document CHEMBL1132933, “Protease inhibitors: synthesis and QSAR study of novel classes of nonbasic thrombin inhibitors incorporating sulfonylguanidine and O-methylsulfonylisourea moieties at P1” (J Med Chem, 2000).

Assays:
Trypsin = Trypsin (Homo sapiens, UniProt P07477+P07478+P35030); experiment: Inhibitory activity against human trypsin (using Chromozym TH as the substrate); assay type: protein assay
Prothrombin = Prothrombin (Homo sapiens, UniProt P00734); experiment: Inhibitory activity against human thrombin (using Chromozym TH as the substrate)

Compound	Ki (Trypsin)	Ki (Prothrombin)
Cc1ccc(S(=O)(=O)NC(=O)N2CCC[C@H]2C(=O)NCC(=O)Nc2ccc(S(=O)(=O)NN=C(N)N)cc2)cc1	1560 nM	15 nM
Cc1cc(C)c(S(=O)(=O)N=C(N)N)c(C)c1	1450 nM	255 nM
COC(=N)NS(=O)(=O)c1ccc(C)cc1	2150 nM	328 nM
COc1ccc(S(=O)(=O)NN=C(N)N)cc1	1275 nM	227 nM
COc1ccc(S(=O)(=O)N=C(N)N)cc1	1320 nM	240 nM
N=C(N)NS(=O)(=O)c1ccc(C(=N)N)cc1	450 nM	300 nM
COC(=N)NS(=O)(=O)c1ccc(Cl)cc1	1325 nM	266 nM
COC(=N)NS(=O)(=O)CC12CCC(CC1=O)C2(C)C (stereo unspecified)	1075 nM	336 nM
COC(=N)NS(=O)(=O)c1ccccc1C(=O)O	1550 nM	325 nM
COC(=N)NS(=O)(=O)c1ccc(Br)cc1	1370 nM	265 nM
N=C(N)NS(=O)(=O)c1ccc(NC(=O)C2CCCN2C(=O)[C@H](Cc2ccccc2)NC(=O)OCc2ccccc2)cc1 (stereo partly specified)	1360 nM	13 nM
N=C(N)NNS(=O)(=O)c1ccc(F)cc1	1025 nM	225 nM
N=C(N)NS(=O)(=O)c1ccc(N)cc1 [SULFAGUANIDINE]	1350 nM	95 nM

Now from value to compound:

Ki (Trypsin)	Ki (Prothrombin)	Compound
1445 nM	48 nM	Cc1ccc(S(=O)(=O)NC(=O)N2CCCC2C(=O)Nc2ccc(S(=O)(=O)N=C(N)N)cc2)cc1 (stereo unspecified)
1150 nM	120 nM	CN(C)c1cccc2c(S(=O)(=O)N=C(N)N)cccc12
1435 nM	16 nM	COC(=N)NS(=O)(=O)c1ccc(NC(=O)C2CCCN2C(=O)[C@H](Cc2ccccc2)NC(=O)OCc2ccccc2)cc1 (stereo partly specified)
1100 nM	98 nM	N=C(N)NNS(=O)(=O)c1cc(Cl)cc(Cl)c1O
1390 nM	10 nM	Cc1ccc(S(=O)(=O)NC(=O)NCCC(=O)N[C@@H](Cc2c[nH]cn2)C(=O)Nc2ccc(S(=O)(=O)NN=C(N)N)cc2)cc1
1400 nM	88 nM	N=C(N)NNS(=O)(=O)c1cccc(N)c1
1550 nM	21 nM	COC(=N)NS(=O)(=O)c1ccc(NC(=O)[C@H](Cc2c[nH]cn2)NC(=O)CNC(=O)NS(=O)(=O)c2ccc(C)cc2)cc1
1420 nM	19 nM	COC(=N)NS(=O)(=O)c1ccc(NC(=O)[C@H](Cc2c[nH]cn2)NC(=O)CCNC(=O)NS(=O)(=O)c2ccc(C)cc2)cc1
1080 nM	103 nM	COc1ccc(S(=O)(=O)N=C(N)N)cc1N
1580 nM	106 nM	COC(=N)NS(=O)(=O)c1ccc(N)cc1
1420 nM	152 nM	N=C(N)NS(=O)(=O)c1cc(Cl)cc(Cl)c1O
1350 nM	213 nM	COC(=N)NS(=O)(=O)c1cccs1
1320 nM	60 nM	COC(=N)NS(=O)(=O)c1ccc(NC(=O)[C@@H](Cc2ccccc2)NC(=O)NS(=O)(=O)c2ccc(C)cc2)cc1
1350 nM	210 nM	N=C(N)NS(=O)(=O)c1ccc(I)cc1
1350 nM	123 nM	N=C(N)NNS(=O)(=O)c1c(F)c(F)c(F)c(F)c1F
